Columns and labels:
Assay type in all cases: physicochemical
[1] = Scanning Electron Microscopy (SEM) characterization of crystals
[2] = Angle of repose (flowability) measured with a 1050/70 type goniometer; details: slightly ground, smeared on horizontal quartz plate; smaller than 40° meets flowability requirements
Method: It is generally believed that the smaller the angle of repose, the better the flowability. When the angle of repose is smaller than 40°, flowability requirements in the production process can be met.

Bulk density = experiment: Bulk density
[3] = Moisture absorption and agglomeration

NCCCC(=O)O [Embodiment 6, γ-aminobutyric acid]
Particle size distribution [1]: uniform | Angle of repose (flowability) [2]: 35 ° | Bulk density (Bulk density): 0.8 g/mL | Susceptibility to absorbing moisture and agglomeration [3]: not susceptible to absorbing moisture and agglomeration

NCCCC(=O)O [Embodiment 2, γ-aminobutyric acid]
Particle size distribution [1]: uniform | Angle of repose (flowability) [2]: 37 ° | Bulk density (Bulk density): 0.7 g/mL | Susceptibility to absorbing moisture and agglomeration [3]: not susceptible to absorbing moisture and agglomeration

NCCCC(=O)O [Embodiment 1, γ-aminobutyric acid]
Particle size distribution [1]: uniform | Angle of repose (flowability) [2]: 35 ° | Bulk density (Bulk density): 0.8 g/mL | Susceptibility to absorbing moisture and agglomeration [3]: not susceptible to absorbing moisture and agglomeration

NCCCC(=O)O [CN101928736A, CN103509831A, CN104531795A, CN102242161A] [γ-aminobutyric acid, reference compound]
Angle of repose (flowability) [2]: 50° | Bulk density (Bulk density): 0.65 g/mL | Agglomeration [3]: Serious agglomeration

NCCCC(=O)O [Embodiment 3, γ-aminobutyric acid]
Particle size distribution [1]: uniform | Angle of repose (flowability) [2]: 34 ° | Bulk density (Bulk density): 0.85 g/mL | Susceptibility to absorbing moisture and agglomeration [3]: not susceptible to absorbing moisture and agglomeration

NCCCC(=O)O [Embodiment 4, γ-aminobutyric acid]
Particle size distribution [1]: uniform | Angle of repose (flowability) [2]: 36 ° | Bulk density (Bulk density): 0.75 g/mL | Susceptibility to absorbing moisture and agglomeration [3]: not susceptible to absorbing moisture and agglomeration

NCCCC(=O)O [Embodiment 5, γ-aminobutyric acid]
Particle size distribution [1]: uniform | Angle of repose (flowability) [2]: 37 ° | Bulk density (Bulk density): 0.7 g/mL | Susceptibility to absorbing moisture and agglomeration [3]: not susceptible to absorbing moisture and agglomeration

NCCCC(=O)O [Present invention, γ-aminobutyric acid]
Angle of repose (flowability) [2]: 35° | Bulk density (Bulk density): 0.80 g/mL | Agglomeration [3]: No agglomeration

Source: patent US10604474B2, “Crystalline form of gamma-aminobutyric acid and preparation method thereof” (NANTONG LICHENG BIOLOGICAL ENGINEERING CO., LTD, priority 2016, dated 2020)
